In patent US20260033491A1, “FUNGAL SPORE FORMULATIONS INCLUDING CARRIER FLUIDS” (priority 2018, published 2026):
Marks after values point to notes of the source that are not given here.

How the values were obtained:
[1] = system: Penicillium bilaii spores; assay: Spore viability (germination rate) of Penicillium bilaii spores dispersed in fluid and stored at 30° C.; format: cell-based; conditions: Penicillium bilaii spores in fluid; for spore viability [%] 6 w@30° C. (41-43 d) / spore viability [%] 3 m@30° C. (83-85 d): storage at 30° C.
Method: (§1) 1.5 g of Penicillium bilaii pure spore powder were transferred into a formulation vessel (IKA Type DT-20 mixing vessel with dispersion tool for Ultra Turrax) using a sterile spoon. 13.5 mL of fluid were added into the respective formulation vessel and dispersed using ultra turrax tube drive control for 1 min at 3000 rpm; change direction after 30 sec. After this 2.8 mL were transferred in four sample bottles (Wheaton Serum vial, Type I) leaving little headspace and closed tight using crimpneck caps (Macherey—Nagel type N 13) Afterwards all sample bottles were transferred to an incubator set at 30° C. and stored for a given time.
(§2) In regular intervals a sample was retrieved from the storage location and analyzed for spore viability. Therefore the original samples were thoroughly homogenized. Aliquots of 0.25 g or 250 μL of each sample are transferred into 50 mL falcon tubes. The tubes were filled up to 25 g using a sterile aqueous solution containing 2% Tween 80 and homogenized by vortexing to achieve the first dilution step (1:100 dilution). This dilution was used for further dilution and spotting on agar.
(§3) Not all samples mixed well or mixed at all in 2% Tween 80. For these samples, an alternative dispersion/dilution method was applied where the oil phase is stripped from the spores first: 0.25 g or 250 μL of sample are weighted into a 2 mL Eppendorf tube, and 0.5 mL of 2% Tween 80 is added, and the mixture is transferred into an Eppendorf centrifuge where it is centrifuged for 1 min at 10.000 rpm. The supernatant (=upper oily phase) is discarded by using a pipette. Afterwards 250 μL of Breakthru S 240 are added and the spores are well dispersed. 250 μL or 0.25 g of each sample are transferred into a sterile 50 mL Falcon tube. The tubes were filled up to 25 g using a sterile aqueous solution containing 2% Tween 80 and homogenized by vortexing to achieve the first dilution step (1:100 dilution). This dilution is used for further dilution and spotting on agar.
(§4) For evaluation of spore germination rate prepare a 1:15000 dilution based on the 1:100 dilution achieved by multiple automated dilution (pipetting robot, 96 well plate). Afterwards 12×12 cm agar plates are taken and spotted with 10 times 5 μL of each sample using an automated 12-Channel pipet. Wait until liquid is soaked up by agar and transfer agar plate to an incubator and incubate at 20° C. for 17 hours. Open the plate and place it under the microscope. Randomly chose one area per spot and record the number of germinated and non-germinated spores that are within the designated field. At least 200 spores per sample need to be evaluated. If needed count more than one field per spot.

[2] = system: Purpureocillium lilacinum spores; assay: Spore viability (germination rate) of Purpureocillium lilacinum spores dispersed in fluid and stored at 30° C.; format: cell-based; conditions: P. lilacinum spores in fluid
Method: as §1, with “3” for “1.5”, “Purpureocillium lilacinum” for “Penicillium bilaii”, “12” for “13.5”, “13).” for “13)”
as §2, with “For this purpose,” for “Therefore”, “were” for “are”
as §3, with “For these” for “Not all samples mixed well or mixed at all in 2% Tween 80. For these”, “oil phase was stripped from” for “oil phase is stripped from”, “a pipette. […] 250 μL” for “a pipette. Afterwards 250 μL of Breakthru S 240 are added and the spores are well dispersed. 250 μL”, “each sample were transferred into” for “each sample are transferred into”, “This dilution was used for” for “This dilution is used for”
as §4, with “a 1:30000” for “a 1:15000”, “plates were” for “plates are”, “at 25°” for “at 20°”

SMILES | spore viability [%] initial (1-2 d) [1] | spore viability [%] 6 w@30° C. (41-43 d) [1] | spore viability [%] 3 m@30° C. (83-85 d) [1] | spore viability [%] at day 1 [2] | spore viability [%] after 5-6 w (35-40 d) ([2]; storage at 30° C., 35-40 d) | spore viability [%] after 3 m (87-92 d) ([2]; storage at 30° C., 87-92 d) | spore viability [%] taken after 7 m of storage ([2]; storage at 30° C., 7 m) | spore viability [%] after 2 w (12-15 d) ([2]; storage at 30° C., 12-15 d) | spore viability [%] after 1 m (27-28 d) ([2]; storage at 30° C., 27-28 d) | spore viability [%] after 2 m (51-55 d) ([2]; storage at 30° C., 51-55 d)
CCCCOC(=O)CCCCC(=O)OCCCC [Adimoll DB, di-n-Butyl adipate] | 97.5% | 90.8% | 75.5% | 98.9% | 97.5% | 89.8% | – | – | – | –
CC(=O)OCC(COC(C)=O)OC(C)=O [Triacetin, Glycerin triacetate] | 92.9% | 83.2% | 57.6% | 98.3% | – | – | 69.4* % | 97.9% | 96.2% | 90.8%
